Assay results: PubChem BioAssay (NCI)
“And” between values parts separate entries of the source, which are not always exact repeats. Identical values can stand only once.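 Exposure lasted 48 hours, with cells grown in 96-well plates and compounds tested at five concentrations. Here, GI50 denotes the concentration required for 50% inhibition of growth. TGI is the concentration that stops growth completely.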

Legend:
Assay in all cases: DTP human tumour cell line panel, 48 h
EKVX NSCLC = tested on: EKVX NSCLC
HCT-15 colon = tested on: HCT-15 colon
K-562 leukemia = tested on: K-562 leukemia
KM12 colon = tested on: KM12 colon
M14 melanoma = tested on: M14 melanoma
MDA-MB-435 = tested on: MDA-MB-435
NCI-H226 lung = tested on: NCI-H226 lung
RXF 393 renal = tested on: RXF 393 renal
SF-268 CNS = tested on: SF-268 CNS
SK-OV-3 ovarian = tested on: SK-OV-3 ovarian

SMILES | GI50 (EKVX NSCLC) | TGI (EKVX NSCLC) | GI50 (HCT-15 colon) | TGI (HCT-15 colon) | GI50 (K-562 leukemia) | TGI (K-562 leukemia) | GI50 (KM12 colon) | TGI (KM12 colon) | GI50 (M14 melanoma) | TGI (M14 melanoma) | GI50 (MDA-MB-435) | TGI (MDA-MB-435) | GI50 (NCI-H226 lung) | TGI (NCI-H226 lung) | GI50 (RXF 393 renal) | TGI (RXF 393 renal) | GI50 (SF-268 CNS) | TGI (SF-268 CNS) | GI50 (SK-OV-3 ovarian) | TGI (SK-OV-3 ovarian)
Cn1c(/C=C(\C#N)c2ccccc2)nc2c(N3CCOCC3)nc(Cl)nc21 | 1.42 µM | 3.04 µM | 0.233 µM | 0.641 µM | 0.348 µM | 3.46 µM | 1.87 µM | 3.77 µM | 0.844 µM | 2.26 µM | 1.3 µM | 2.78 µM | 1.52 µM | 3.4 µM | 0.89 µM | 2.14 µM | 1.55 µM | 3.15 µM | 4.54 µM | 16.2 µM
C=C(CN1C(=O)[C@H]2CCCN2C(=O)c2ccccc21)c1ccc(C(=O)O)cc1 | > 100 µM | > 100 µM | > 100 µM | > 100 µM | > 100 µM | > 100 µM | > 100 µM | > 100 µM | > 100 µM | > 100 µM | > 100 µM | > 100 µM | > 100 µM | > 100 µM | > 100 µM | > 100 µM | > 100 µM | > 100 µM | > 100 µM | > 100 µM
CCc1c(C#N)c(S[C@@H](C(N)=O)c2ccccc2)nc(N(C)C)c1C#N | 7.93 µM | > 100 µM | > 100 µM | > 100 µM | – | – | > 100 µM | > 100 µM | > 100 µM | > 100 µM | > 100 µM | > 100 µM | 4.76 µM | > 100 µM | 4.51 µM | 51.9 µM | 5.07 µM | > 100 µM | 6.65 µM | > 100 µM
O=C1CCCCCCCC/C=C\CC(c2ccco2)O1 (stereo not given) | 26.7 µM | 75.7 µM | 23.5 µM | 77.9 µM | 23.5 µM | 73.8 µM | 28.5 µM | > 100 µM | 24.6 µM | 70.5 µM | 51.5 µM | > 100 µM | 21 µM | 64.1 µM | 21.5 µM | 65.2 µM | 30.8 µM | > 100 µM | 32.7 µM | > 100 µM
N#Cc1nc2c(S(=O)(=O)c3ccccc3)c(N)n(Cc3cccnc3)c2nc1C#N | 81.9 µM | > 100 µM | > 100 µM | > 100 µM | > 100 µM | > 100 µM | > 100 µM | > 100 µM | – | – | > 100 µM | > 100 µM | 28.9 µM | > 100 µM | 2.47 µM | 9.1 µM | 4.26 µM | 22.7 µM | 18.8 µM | 67.5 µM
O=C(CN1CCN(CCCOc2c(-c3ccccc3)oc3ccccc3c2=O)CC1)Nc1ccc(Cl)cc1C(=O)c1ccccc1Cl | 22.7 µM | > 100 µM | 5.48 µM | 53.8 µM | 4.18 µM | > 100 µM | 5.73 µM | 29.9 µM | 2.01 µM | 4.51 µM | 4.13 µM | 17 µM | 13.9 µM | 40.2 µM | 2.57 µM | 8.79 µM | 23.2 µM | > 100 µM | 15.1 µM | 54.2 µM
COc1ncc(-c2ccc3nccc(-c4ccnnc4)c3c2)cc1NS(=O)(=O)c1ccc(F)cc1F | 0.0138 µM and 0.013 µM | 1.23 µM and 1.73 µM | 0.00632 µM and < 0.01 µM | > 4.83 µM and 5.11 µM | – | > 100 µM | 0.033 µM and 0.0302 µM | 1.53 µM and 1.58 µM | 0.013 µM and < 0.01 µM | 0.794 µM and 0.485 µM | 0.0105 µM and < 0.0117 µM | 1.13 µM and 0.863 µM | 0.0269 µM and 0.0208 µM | > 3.68 µM and 2.91 µM | 0.0048 µM and < 0.01 µM | 0.0436 µM and 0.0351 µM | 0.0127 µM and 0.0148 µM | > 10 µM and 9.23 µM | 0.00188 µM and < 0.01 µM | 0.0204 µM and 0.0377 µM
CC(=O)[C@@]1(O)CC[C@H]2[C@@H]3C[C@H](C)C4=CC(=O)CC[C@]4(C)[C@H]3[C@@H](O)C[C@@]21C | – | > 100 µM | – | > 100 µM | – | > 100 µM | – | > 100 µM | – | > 100 µM | – | > 100 µM | – | > 100 µM | – | > 100 µM | – | > 100 µM | – | > 100 µM
CC(C)(C)c1nn(-c2ccccc2)c2c1C(=O)CSC(c1ccccc1Cl)N2 (stereo not given) | 3.71 µM | 26.1 µM | 2 µM | 16 µM | 0.583 µM | 14.9 µM | 1.48 µM | 14.7 µM | 1.18 µM | 6.45 µM | 0.304 µM | 1.31 µM | 1.61 µM | 5.97 µM | 0.545 µM | 3.11 µM | 2.76 µM | 18.5 µM | 1.78 µM | 6.17 µM
CCC(CO)Nc1nc(NCc2ccccc2O)c2ncn(C(C)C)c2n1 (stereo not given) | 15.2 µM | > 100 µM | 2.25 µM | > 100 µM | 0.628 µM | 16.4 µM | 3.92 µM | > 100 µM | 4.77 µM | 18.8 µM | 2.64 µM | 9.34 µM | 8.95 µM | 50.8 µM | 3.29 µM | > 100 µM | 2.55 µM | 13 µM | 5.95 µM | 41 µM
COc1ccc(-n2nnnc2-c2c[nH]c3c(F)cc(F)cc23)cc1 | > 100 µM | > 100 µM | > 100 µM | > 100 µM | > 100 µM | > 100 µM | > 100 µM | > 100 µM | > 100 µM | > 100 µM | > 100 µM | > 100 µM | > 100 µM | > 100 µM | 16.2 µM | 45.4 µM | 40.3 µM | > 100 µM | 34.7 µM | > 100 µM
COC(=O)c1c2c(c(C)[n+]([O-])c1C)C(=O)C=C(NCc1ccc(F)c(Cl)c1)C2=O | 0.592 µM | 2.27 µM | 0.0855 µM | 1.63 µM | 0.0315 µM | 5.27 µM | 0.0515 µM | 1.58 µM | 0.117 µM | 1.45 µM | 0.0515 µM | 0.173 µM | 1.26 µM | 3.26 µM | 1.13 µM | 2.46 µM | 1.01 µM | 2.81 µM | 1.51 µM | 3.38 µM
